Assay results as given in publication PMC5571359, “Screening the Medicines for Malaria Venture Pathogen Box across Multiple Pathogens Reclassifies Starting Points for Open-Source Drug Discovery” (Antimicrobial Agents and Chemotherapy, 2017).
Read-outs that look alike come from different tables or passages of the source.

Assays:
[1] = tested on: Plasmodium falciparum 3D7 asexual blood stage; test: microbe, parasite or virus in culture
[2] = tested on: Plasmodium falciparum 3D7 asexual blood stage; details: for IC50: read-out: Antiplasmodial IC50 (ABS), PBox compounds, P. falciparum 3D7; for screening concentrations at which red blood cell (RBC) lysis was witnessed: human
[3] = tested on: HepG2; details: ref PBox supporting information, cited from earlier work; for CC50: read-out: HepG2 PBox CC50 µM
[4] = tested on: P. falciparum ABS; details: cited from earlier work; for EC50: ChEMBL Data
[5] = tested on: P. falciparum stage V gametocytes; details: stage V gametocytes; ref PBox supporting information; read-out: PF stage V GAMS PBox IC50; cited from earlier work
[6] = tested on: HEK293 cells; test: HEK293 resazurin cell cytotoxicity assay; details: for IC50: Homo sapiens; for percent inhibition at the top screening dose, HEK293: reference compound set
[7] = tested on: T. cruzi intracellular amastigotes; test: Intracellular anti-Trypanosoma cruzi image-based assay (amastigotes); type: cell-based; details: Trypanosoma cruzi
[8] = tested on: T. b. brucei 427 bloodstream trypanosomes; test: T. b. brucei resazurin viability assay; type: cell-based, Trypanosoma brucei brucei; details: Trypanosoma brucei
[9] = tested on: 3T3 host cells; test: T. cruzi assay, activity against 3T3 host cells; type: cell-based; details: reference compound set; IA = inactive at 16.4 μM
Protocol: page 4: […] Puromycin, 71 chloroquine, artesunate, DHA, pyronaridine and pyrimethamine were also tested in 72 IC50 format to act as internal reference compounds. 73 74 Intracellular anti-Trypanosoma cruzi Assay Protocol 75 The host cell cytoplasm, in which the parasite resides, is identified by the fluorescent 76 marker, HCS CellMask Green. Parasite and host cell nuclei are detected with the 77 fluorescent DNA intercalator, Hoechst 33342. The Opera® High Content Screening 78 System is used to take images of wells and a spot detection algorithm is used to 79 identify parasites within the cytoplasm. 80 81 Briefly, 1x 10^3 3T3 cells were added to collagen coated 384-well plates and following 82 24 hrs incubation at 37 °C, a multiplicity of infection (MOI) of 5:1 parasite: host cells 83 were added to the plate using a Multidrop liquid handler. Following additional 24 hrs 84 incubation, extracellular parasites were washed from the plates and RPMI with no […] 86 added to all wells. The final volume of media in the primary screening assay, before 87 addition of compound, was modified slightly to 55 µL. One µL of compounds, provided 88 by Compounds Australia, were diluted by the addition of 25 µL of sterile water. This […] 91 donovani). Five microliters of this dilution was added to assay plates. The final […] The final concentrations of compounds in the […] Following 48 hrs incubation in the presence 97 of compounds, wells were fixed, stained and read on the Opera® High Content 98 Screening System to assess compound activity. 99 The Z′-factor, as a measure of assay reproducibility, was determined from a plate […] The positive control used to calculate activity against […] To 103 assess the sensitivity of the T. cruzi assay, activity of the reference compounds 104 benznidazole, NFX, posaconazole and puromycin were determined. […] 108 resazurin as a measure of parasite viability. 109 T. b. brucei trypanosomes were cultured in vitro in HM1-9 medium supplemented with […] Fifty-five µL of logarithmic phase […] 112 incubated for 24 hrs at 37°C /5% CO2. Compounds were subsequently added to the […] Following […] 116 37°C / 5% CO2 followed by 22 hrs at room temperature. […] The percent

[10] = tested on: NF54-pfs16-LUC-GFP stage IV gametocytes; test: Plasmodium falciparum late stage gametocyte (LSG) image-based assay; type: cell-based; details: for IC50 / inhibition at 20 µM: Plasmodium falciparum; for inhibition at 20 µM: NF54, read-out: percent inhibition at the top screening dose, P. falciparum NF54 LSG
[11] = tested on: L. donovani MHOM/IN/80/DD8 intracellular amastigotes; test: Leishmania donovani intracellular amastigote assay in THP-1 cells; type: cell-based; details: for IC50 / inhibition at 20 µM: Leishmania donovani, reference compound set; for IC50: IA = inactive at 20 μM; for inhibition at 20 µM: THP-1
[12] = tested on: liver stage; details: ref Pbox supporting information; cited from earlier work
[13] = 3D7, read-out: Antiplasmodial IC50 (ABS), PBox compounds, P. falciparum 3D7
[14] = 3D7, read-out: activity against P. falciparum (novel antiplasmodial actives of the tuberculosis set)
[15] = P. falciparum 3D7, ref PBox supporting information, read-out: Pf 3D7 Pbox IC50
[16] = HEK293, read-out: HEK % Inhibition 20uM/IC50 Discovery Biology (IA)
[17] = NF54, read-out: IC50 P. falciparum NF54 LSG, reference compound set, 11-point dose response, IA = inactive at 20 μM
[18] = reference compound set, IA = inactive at 16.4 μM, read-out: IC50 T. cruzi intracellular amastigotes
[19] = THP-1, read-out: IC50 L. donovani n = 1, first test
[20] = THP-1, read-out: IC50 L. donovani n = 2, second test
[21] = 3D7, read-out: IC50 P. falciparum 3D7 ABS
[22] = reference compound set, IA = inactive at 20 μM, read-out: IC50 T. brucei brucei trypomastigotes

| SMILES | IC50 [9] | IC50 [10, 17] | IC50 [7, 18] | IC50 [11, 19] | IC50 [11, 20] | IC50 [1, 21] | IC50 [8, 22] | other results |
| --- | --- | --- | --- | --- | --- | --- | --- | --- |
| c1ccc(C[C@@H]2CN(c3nccc(Oc4ccc(-n5ccnc5)cc4)n3)CCN2)cc1 [MMV687749] | – | – | – | – | – | – | – | IC50 [1, 13]: 2 µM; IC50 [1, 14]: < 2 µM; IC50 [2]: 2.08 µM; CC50 ([3]; HepG2 cytotoxicity): 29 µM |
| CNC(=O)CNc1nc(-c2ccccn2)nc2scc(-c3ccccc3)c12 [MMV1029203] | – | – | – | – | – | – | – | IC50 [4, 15]: > 2 µM; IC50 [5]: 0.84 µM; screening concentrations at which red blood cell (RBC) lysis was witnessed [2]: ≥ 2 µM; IC50 [6, 16]: > 20 µM |
| CCNC(=O)C(C)Nc1nc(-c2cccnc2)nc2sc(C)c(C)c12 (stereo not shown) [MMV1037162] | – | – | – | – | – | – | – | IC50 [4, 15]: > 2 µM; IC50 [5]: 0.61 µM; screening concentrations at which red blood cell (RBC) lysis was witnessed [2]: ≥ 2 µM; IC50 [6, 16]: > 20 µM |
| COc1ccc(OC)c(NCc2ccc3nc(N)nc(N)c3c2Cl)c1 [MMV675968] | – | – | – | – | – | – | – | IC50 ([7]; intracellular amastigotes, read-out: T cruzi Discovery Biology IC50): 1.33 µM; IC50 [1, 13]: 0.03 µM; IC50 ([1]; 3D7, read-out: Pf 3D7 Discovery Biology IC50, P. falciparum 3D7 asexual blood stage): 0.033 µM; SI HEK (P. falciparum 3D7) ([2]; HEK293): 7.4; SI HepG2 (P. falciparum 3D7) ([2]; HEPG2 (PBox data)): 113; HepG2 PBox CC20 ([3]; HepG2): 3.4 µM; IC50 ([6]; HEK293, read-out: HEK % Discovery Biology IC50): 0.221 µM; IC50 ([8]; read-out: T b.brucei Discovery Biology IC50): 2.07 µM |
| CCN(CC)CCCCCCNc1cc(OC)cc2c(C)ccnc12 [Sitamaquine, reference compound] | > 16.4 µM | 0.982 µM | > 16.4 µM | > 20 µM | > 20 µM | – | – | IC50 ([1]; 3D7, read-out: IC50 P. falciparum 3D7 ABS, reference compound set, 11-point dose response, IA = inactive at 20 μM): 2.03 µM; percent inhibition at the top screening dose, HEK293 [6]: 100%; inhibition at 20 µM ([8]; reference compound set, 20 μM, read-out: percent inhibition at the top screening dose, T. brucei brucei): 91% |
| Cc1cnc(N2CCN[C@@H](Cc3ccccc3)C2)nc1Oc1ccc(-n2ccnc2)cc1 [MMV687765] | – | – | – | – | – | – | – | IC50 ([10]; NF54, read-out: Pf Stage IV GAMS Discovery Biology IC50 µM, stage IV gametocytes, Discovery Biology): 4.28 µM; IC50 [1, 13]: 2 µM; IC50 [1, 14]: < 2 µM; IC50 [2]: 2.01 µM; CC50 ([3]; HepG2 cytotoxicity): 14.1 µM |
| N=C(N)c1ccc(OCCCCCOc2ccc(C(=N)N)cc2)cc1 [Pentamidine, reference compound] | > 16.4 µM | 1.43 µM | > 16.4 µM | > 20 µM | > 20 µM | 0.01 µM | < 0.02 µM | activity against L. donovani at 20 μM ([11]; PBox sample, 20 μM): did not show activity; percent inhibition at the top screening dose, HEK293 [6]: 75%; IC50 ([8]; in-house control stock, not the PBox sample, read-out: IC50 of standard in-house assay control, T. brucei brucei): < 0.001 µM |
| C[C@H](C(N)=O)N1CCCC[C@@H]1c1ccc(OCc2cccc(F)c2)cc1 [MMV676270] | – | – | – | – | – | – | – | activity in the Discovery Biology stage IV gametocyte (LSG) assay [10]: no activity; EC50 ([4]; P. falciparum, read-out: TCMDC (ref 93) EX50): 0.99 µM; IC50 ([4]; read-out: literature ABS activity): 0.99 µM; IC50 [12]: 1.77 µM; activity in the Discovery Biology ABS assay [2]: no activity; CC50 [3]: > 10 µM; IC50 [6, 16]: > 20 µM |
| CC[C@@H](CO)NCCN[C@@H](CC)CO [Ethambutol, reference compound] | > 16.4 µM | – | > 16.4 µM | > 20 µM | > 20 µM | > 20 µM | > 20 µM | inhibition at 20 µM [10]: 42% |
| CC[C@@H]([C@H](C)O)n1ncn(-c2ccc(N3CCN(c4ccc(OC[C@@H]5CO[C@@](Cn6cncn6)(c6ccc(F)cc6F)C5)cc4)CC3)cc2)c1=O [Posaconazole, reference compound] | > 16.4 µM | – | 0.172 µM | – | – | 4.1 µM | > 20 µM | inhibition at 20 µM [10]: 63%; IC50 ([7]; in-house control stock, not the PBox sample, read-out: IC50 of standard in-house assay control, T. cruzi amastigotes): 0.001 µM; Emax ([7]; reference compound set, read-out: T. cruzi Emax (maximal % inhibition plateau in dose response curve)): 73%; inhibition at 20 µM ([11]; first test, 20 μM, read-out: percent inhibition at the top screening dose, L. donovani n = 1): 64%; inhibition at 20 µM ([11]; second test, 20 μM, read-out: percent inhibition at the top screening dose, L. donovani n = 2): 60% |
| O=C(C1CCCCC1)N1CC(=O)N2CCc3ccccc3C2C1 (stereo not shown) [Praziquantel, reference compound] | > 16.4 µM | > 20 µM | > 16.4 µM | > 20 µM | > 20 µM | > 20 µM | > 20 µM | – |
| CCCCCCCCCCCCCCCCOP(=O)([O-])OCC[N+](C)(C)C [Miltefosine, reference compound] | > 16.4 µM | > 20 µM | > 16.4 µM | 11.7 µM | 2.26 µM | > 20 µM | > 20 µM | – |
| C[C@H]1c2cccc(O)c2C(=O)C2=C(O)[C@]3(O)C(=O)C(C(N)=O)=C(O)[C@@H](N(C)C)[C@@H]3[C@@H](O)[C@@H]21 [Doxycycline, reference compound] | > 16.4 µM | – | > 16.4 µM | > 20 µM | > 20 µM | – | > 20 µM | inhibition at 20 µM [10]: 77%; inhibition at 20 µM ([1]; 3D7, read-out: percent inhibition at the top screening dose, P. falciparum 3D7 ABS): 90% |
| [H]/N=C(/N)N[C@H]1[C@H](O)[C@@H](O)[C@H](O[C@@H]2O[C@@H](C)[C@](O)(C=O)[C@H]2O[C@@H]2O[C@@H](CO)[C@H](O)[C@@H](O)[C@@H]2NC)[C@@H](N/C(N)=N\[H])[C@@H]1O [Streptomycin, reference compound] | > 16.4 µM | – | > 16.4 µM | > 20 µM | > 20 µM | > 20 µM | > 20 µM | inhibition at 20 µM [10]: 41% |
| NCC[C@H](O)C(=O)N[C@@H]1C[C@H](N)[C@@H](O[C@H]2O[C@H](CN)[C@@H](O)[C@H](O)[C@H]2O)[C@H](O)[C@H]1O[C@H]1O[C@H](CO)[C@@H](O)[C@H](N)[C@H]1O [Amikacin, reference compound] | > 16.4 µM | > 20 µM | > 16.4 µM | > 20 µM | > 20 µM | > 20 µM | > 20 µM | – |
| Cc1ccc(C(=O)Nc2ccc(S(=O)(=O)O)c3cc(S(=O)(=O)O)cc(S(=O)(=O)O)c23)cc1NC(=O)c1cccc(NC(=O)Nc2cccc(C(=O)Nc3cc(C(=O)Nc4ccc(S(=O)(=O)O)c5cc(S(=O)(=O)O)cc(S(=O)(=O)O)c45)ccc3C)c2)c1 [Suramin, reference compound] | > 16.4 µM | > 20 µM | > 16.4 µM | > 20 µM | > 20 µM | > 20 µM | – | IC50 ([8]; read-out: IC50 T. brucei brucei trypomastigotes): 0.11 µM |
| O=C(C1CCN(c2nnnn2-c2ccccc2)CC1)N1CCc2ccccc2C1 [MMV009135] | – | – | – | – | – | – | – | activity in the Discovery Biology stage IV gametocyte (LSG) assay [10]: did not show any activity; EC50 ([4]; NITD, read-out: NITD (ref 94) EC50): 1.3 µM; EC50 ([4]; TCMDC, read-out: TCMDC (ref 93) EX50): 0.71 µM; activity in the Discovery Biology ABS assay [2]: did not show any activity |
